Source: the supplement of paper PMC4649846
Blank lines part the entries; values can stand above or below the compound they belong to.

Legend:
MDA-MB-231 [1] = experiment: drug sensitivity score (DSS); higher = more sensitive; extreme values may be limits of the assay; conditions: incubation time: 72 h
Procedure, shortened: (§1)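 For the IC50 and drug sensitivity score, logistic dose–response curves were fitted in Dotmatics Studies. The score compares curve area with a reference area and is normalised by log of top response. Input data were CellTiter-Blue fluorescence readings from MDA-MB-231 cells, transfected a day earlier with BRCA1 or non-targeting control siRNA, that had spent 72 h at 37 °C and 5% CO2 at 4000 cells per well in 384-well plates with compounds at 5 concentrations.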

MDA-MB-231 [2] = conditions: incubation time: 72 h
Procedure, shortened: as §1

[3] = siRNA: siControl (non-targeting)

Structure (SMILES): CO[C@@H](C(=O)N1Cc2[nH]nc(NC(=O)c3ccc(N4CCN(C)CC4)cc3)c2C1)c1ccccc1 [Danusertib]
drug sensitivity score (MDA-MB-231 [1]; siRNA: siBRCA1): 6.5
drug sensitivity score (MDA-MB-231 [1]; [3]): 10.1
IC50 of cell viability (MDA-MB-231 [2]; siRNA: siBRCA1): 1910 nM
IC50 of cell viability (MDA-MB-231 [2]; [3]): 1160 nM

Structure (SMILES): O=C(O)C1(C(=O)O)CCC1.[NH2-].[NH2-].[Pt+2] [Carboplatin]
drug sensitivity score (MDA-MB-231 [1]; siRNA: siBRCA1): 0
drug sensitivity score (MDA-MB-231 [1]; [3]): 0
IC50 of cell viability (MDA-MB-231 [2]; siRNA: siBRCA1): > 4170 nM
IC50 of cell viability (MDA-MB-231 [2]; [3]): > 4170 nM

Structure (SMILES): CC(=O)[C@]1(O)Cc2c(O)c3c(c(O)c2[C@@H](O[C@H]2C[C@H](N)[C@H](O)[C@H](C)O2)C1)C(=O)c1ccccc1C3=O [Idarubicin]
drug sensitivity score (MDA-MB-231 [1]; siRNA: siBRCA1): 22
drug sensitivity score (MDA-MB-231 [1]; [3]): 21
IC50 of cell viability (MDA-MB-231 [2]; siRNA: siBRCA1): 91.4 nM
IC50 of cell viability (MDA-MB-231 [2]; [3]): 115 nM

Structure (SMILES): CO[C@@H]1[C@H](N(C)C(=O)c2ccccc2)C[C@H]2O[C@]1(C)n1c3ccccc3c3c4c(c5c6ccccc6n2c5c31)C(=O)NC4 [PKC412 (Midostaurin)]
drug sensitivity score (MDA-MB-231 [1]; siRNA: siBRCA1): 11
drug sensitivity score (MDA-MB-231 [1]; [3]): 14.7
IC50 of cell viability (MDA-MB-231 [2]; siRNA: siBRCA1): 517 nM
IC50 of cell viability (MDA-MB-231 [2]; [3]): 206 nM

Structure (SMILES): CCNC(=O)c1noc(-c2cc(C(C)C)c(O)cc2O)c1-c1ccc(CN2CCOCC2)cc1 [NVP-AUY922]
drug sensitivity score (MDA-MB-231 [1]; siRNA: siBRCA1): 19.6
drug sensitivity score (MDA-MB-231 [1]; [3]): 23
IC50 of cell viability (MDA-MB-231 [2]; siRNA: siBRCA1): 46.8 nM
IC50 of cell viability (MDA-MB-231 [2]; [3]): 26.6 nM

Structure (SMILES): CO[C@H]1/C=C\C=C(/C)C(=O)NC2=CC(=O)C(NCCN(C)C)=C(C[C@@H](C)C[C@H](OC)[C@H](O)[C@@H](C)/C=C(\C)[C@@H]1OC(N)=O)C2=O [Alvespimycin]
drug sensitivity score (MDA-MB-231 [1]; siRNA: siBRCA1): 20
drug sensitivity score (MDA-MB-231 [1]; [3]): 22.7
IC50 of cell viability (MDA-MB-231 [2]; siRNA: siBRCA1): 128 nM
IC50 of cell viability (MDA-MB-231 [2]; [3]): 75.7 nM

Structure (SMILES): O=C(/C=C/c1cccc(S(=O)(=O)Nc2ccccc2)c1)NO [Belinostat]
drug sensitivity score (MDA-MB-231 [1]; siRNA: siBRCA1): 12.2
drug sensitivity score (MDA-MB-231 [1]; [3]): 12.9
IC50 of cell viability (MDA-MB-231 [2]; siRNA: siBRCA1): 757 nM
IC50 of cell viability (MDA-MB-231 [2]; [3]): 668 nM

Structure (SMILES): OC[C@H]1O[C@@H](n2cnc3c2N=CNC[C@H]3O)C[C@@H]1O [Pentostatin]
drug sensitivity score (MDA-MB-231 [1]; siRNA: siBRCA1): 0
drug sensitivity score (MDA-MB-231 [1]; [3]): 0
IC50 of cell viability (MDA-MB-231 [2]; siRNA: siBRCA1): > 4170 nM
IC50 of cell viability (MDA-MB-231 [2]; [3]): > 4170 nM

Structure (SMILES): CN1CC[C@H](c2c(O)cc(O)c3c(=O)cc(-c4ccccc4Cl)oc23)[C@H](O)C1 [Alvocidib]
drug sensitivity score (MDA-MB-231 [1]; siRNA: siBRCA1): 18.8
drug sensitivity score (MDA-MB-231 [1]; [3]): 20.2
IC50 of cell viability (MDA-MB-231 [2]; siRNA: siBRCA1): 181 nM
IC50 of cell viability (MDA-MB-231 [2]; [3]): 150 nM

Structure (SMILES): O=C1CN2Cc3c(ccc(Cl)c3Cl)N=C2N1 [Anagrelide]
drug sensitivity score (MDA-MB-231 [1]; siRNA: siBRCA1): 0
drug sensitivity score (MDA-MB-231 [1]; [3]): 0
IC50 of cell viability (MDA-MB-231 [2]; siRNA: siBRCA1): > 4170 nM
IC50 of cell viability (MDA-MB-231 [2]; [3]): > 4170 nM

Structure (SMILES): CCC1=C[C@@H]2CN(C1)Cc1c([nH]c3ccccc13)[C@@](C(=O)OC)(c1cc3c(cc1OC)N(C)[C@H]1[C@@](O)(C(=O)OC)[C@H](OC(C)=O)[C@]4(CC)C=CCN5CC[C@]31[C@@H]54)C2 [Vinorelbine]
drug sensitivity score (MDA-MB-231 [1]; siRNA: siBRCA1): 23.5
drug sensitivity score (MDA-MB-231 [1]; [3]): 24
IC50 of cell viability (MDA-MB-231 [2]; siRNA: siBRCA1): 31 nM
IC50 of cell viability (MDA-MB-231 [2]; [3]): 23.6 nM

Now from value to compound, other results behind:

IC50 of cell viability (MDA-MB-231 [2]; siRNA: siBRCA1): 869 nM
IC50 of cell viability (MDA-MB-231 [2]; [3]): 1290 nM
Structure (SMILES): COc1c(C)cnc(Cn2cnc3c(Cl)nc(N)nc32)c1C [BIIB021]
drug sensitivity score (MDA-MB-231 [1]; siRNA: siBRCA1): 8.95
drug sensitivity score (MDA-MB-231 [1]; [3]): 9.35

IC50 of cell viability (MDA-MB-231 [2]; siRNA: siBRCA1): > 4170 nM
IC50 of cell viability (MDA-MB-231 [2]; [3]): > 4170 nM
Structure (SMILES): C[C@]1(O)C[C@@H](c2nc(-c3ccc4ccc(-c5ccccc5)nc4c3)c3c(N)nccn32)C1 [OSI-906]
drug sensitivity score (MDA-MB-231 [1]; siRNA: siBRCA1): 0
drug sensitivity score (MDA-MB-231 [1]; [3]): 0

IC50 of cell viability (MDA-MB-231 [2]; siRNA: siBRCA1): > 4170 nM
IC50 of cell viability (MDA-MB-231 [2]; [3]): > 4170 nM
Structure (SMILES): CCCS(=O)(=O)Nc1ccc(F)c(C(=O)c2c[nH]c3ncc(-c4ccc(Cl)cc4)cc23)c1F [PLX4032]
drug sensitivity score (MDA-MB-231 [1]; siRNA: siBRCA1): 0
drug sensitivity score (MDA-MB-231 [1]; [3]): 0

IC50 of cell viability (MDA-MB-231 [2]; siRNA: siBRCA1): 900 nM
IC50 of cell viability (MDA-MB-231 [2]; [3]): 813 nM
Structure (SMILES): CNC(=O)c1cc(Oc2ccc(NC(=O)Nc3ccc(Cl)c(C(F)(F)F)c3)c(F)c2)ccn1 [BAY 73-4506]
drug sensitivity score (MDA-MB-231 [1]; siRNA: siBRCA1): 4.52
drug sensitivity score (MDA-MB-231 [1]; [3]): 2.71
